# Assay results as given in article PMC10348910, “Epigenetic reprogramming of cell cycle genes by ACK1 promotes breast cancer resistance to CDK4/6 inhibitor” (Oncogene, 2023).
# What was measured:
# BT549 = experiment: proliferation assay, trypan blue exclusion; assay type: cell-based; conditions: BT549 (lacking Rb), 96 h
# Protocol: (§1) A–F Breast cancer cells were treated with either vehicle or (R)-9b for 48 h; cells were harvested and processed for cell cycle analysis using propidium iodide staining, followed by flow cytometry. G BT549 and H MDA-MB-468 cells were treated with varying drug concentrations of palbociclib or (R)-9b for 96 h and the cell viability assessed using trypan blue exclusion method. I BT549, and J MDA-MB-468 cells were treated with 1 µM palbociclib or (R)-9b for 48 h and subjected to cell cycle analysis using propidium iodide staining, followed by flow-cytometry. Palbociclib-resistant MDA-MB-231 (K) and HCC-1395 (L) were generated and treated with varying drug concentrations of palbociclib or (R)-9b for 96 h and the cell viability assessed using trypan blue exclusion method.
# (§2) For proliferation assay, 5 × 10^4 cells were plated in 6-well plate and treated with either vehicle (DMSO) or varying concentrations of (R)-9b or palbociclib in complete media for 96 h and number of viable cells were counted by trypan blue exclusion assay. Breast cancer cell lines were treated with vehicle or varying concentrations of (R)-9b for 72 h. The cells were harvested, washed 2 times with PBS and incubated with 3 ul of Annexin V-FITC antibody according to the manufacturers protocol (BD Biosciences). Five µl Propidium iodide was used to stain necrotic cells. The cells were acquired using the BD FACSCalibur machine (BD Biosciences) and data was analyzed using FlowJo software. Cell cycle analysis was performed as mentioned earlier. Briefly, vehicle or (R)-9b (48 h) treated cells were harvested by trypsinization, washed 2 times with PBS, and fixed using chilled 70% Ethanol for 1 h, followed by 2 washes with PBS. The cell pellets were treated with 50 µl RNase A (100 µg/ml; Sigma) for 15 min at 37 °C and Propidium Iodide (PI; 50 µg/ml, Sigma) was added to these cells, followed by acquisition using BD FACS Canto-II or FACSCalibur machines. The data were analyzed using FlowJo software.
# MDA-MB-468 = experiment: proliferation assay, trypan blue exclusion; assay type: cell-based; conditions: MDA-MB-468 (lacking Rb), 96 h
# Protocol: as §1, §2
# [1] = system: MCF7, SKBR3, HCC-1395 and MDA-MB-453; experiment: apoptosis assay, Annexin V-FITC/PI flow cytometry; assay type: cell-based; conditions: 0.25, 0.5, 1 µM
# Protocol: For proliferation assay, 5 × 10^4 cells were plated in 6-well plate and treated with either vehicle (DMSO) or varying concentrations of (R)-9b or palbociclib in complete media for 96 h and number of viable cells were counted by trypan blue exclusion assay. Breast cancer cell lines were treated with vehicle or varying concentrations of (R)-9b for 72 h. The cells were harvested, washed 2 times with PBS and incubated with 3 ul of Annexin V-FITC antibody according to the manufacturers protocol (BD Biosciences). Five µl Propidium iodide was used to stain necrotic cells. The cells were acquired using the BD FACSCalibur machine (BD Biosciences) and data was analyzed using FlowJo software. Cell cycle analysis was performed as mentioned earlier. Briefly, vehicle or (R)-9b (48 h) treated cells were harvested by trypsinization, washed 2 times with PBS, and fixed using chilled 70% Ethanol for 1 h, followed by 2 washes with PBS. […] The data were analyzed using FlowJo software. […]
# (A) MCF7, SKBR3, HCC-1395 and MDA-MB-453 cells were treated with 0.25µM, 0.5µM and 1 µM (R)-9b for 96h. […] Quantification of the live, early apoptotic, late apoptotic and necrotic cells is represented using stacked columns. […]
# [2] = system: MDA-MB-231 lung metastasis; experiment: tail vein assay of cancer metastasis; assay type: in vivo, female SCID mice; conditions: 24 mg/Kg, 5 days a week
# Protocol: To validate the functional significance in vivo, we performed the tail vein assay of cancer metastasis. Briefly, MDA-MB-231 cells were injected in tail veins of female SCID mice and were treated with vehicle or 24 mg/Kg (R)-9b either subcutaneously or orally, for 5 days a week. The mice were euthanized and the lungs were harvested, preserved in 10% neutral buffered formalin, followed by H&E staining. Sections were examined by pathologist (C.W), and scored for metastatic nodules/deposits in 12 × 10 mm area of lung tissue.
# MDA-MB-231 cells (2 × 10^5 in PBS), were injected intravenously in the lateral tail vein of female SCID mice. After 10 days, the mice were randomly chosen for treatment with either vehicle, (R)-9b (36 mg/Kg body weight) orally or subcutaneously (s.c.) (24 mg/Kg body weight) for 5 days a week, for 2 weeks. The mice were sacrificed and the lungs were harvested and fixed in 10% neutral buffered formalin. The number of metastatic foci per lung were scored in a blinded fashion by a pathologist (C.W.).
# [3] = system: luciferase expressing 4T1 cells; experiment: orthotopic lung metastasis study; assay type: in vivo, female Balb/c mice; conditions: 24 mg/kg subcutaneously, 2 weeks
# Protocol: In addition, we performed fluorescent imaging on mice orthotopically injected with luciferase expressing 4T1 cells (5 × 10^5). Two weeks after inoculation into the mammary fat pads, mice were subcutaneously injected with vehicle (6% Captisol) or (R)-9b (24 mg/kg) five times a week for 2 weeks. Mice were then administered an intraperitoneal injection of D-luciferin, lungs were excised and imaged for metastases.
# Female Balb/c mice were orthotopically injected with luciferase expressing 4T1 cells (5 × 10^5). Two weeks after inoculation into the 5th mammary fat pads, mice were subcutaneously injected with vehicle (6% captisol) or (R)-9b (24 mg/Kg) five times a week, for 2 weeks. Mice were then intraperitoneally injected with D-luciferin, humanely euthanized, lungs were excised and assessed for metastases using both fluorescent in vivo imaging system and H&E staining.
# phospho-serine 139-γH2AX = experiment: γH2AX immunocytochemistry; assay type: cell-based; conditions: breast cancer cell lines, 48h
# Protocol: Breast cancer cells were grown over coverslips and treated with vehicle or (R)-9b. The cells were fixed in 2% paraformaldehyde and permeabilized. The cells were stained with phospho-serine 139-γH2AX antibody (Red), phalloidin (green) and DAPI. Fluorescent microscopic images were captured. […]
# breaks in breast cancer cell lines
# Breast cancer cell lines were treated with either vehicle or (R)-9b for 48h and stained with phospho-serine 139-γH2AX antibody (Red), phalloidin (green) and DAPI. Representative images of fluorescent microscopic analysis are shown.
# [4] = system: prostate cancer cell lines; set-up: method as in PMID 28609657; conditions: various prostate cancer cell lines; cited from earlier work
smiles,measurement,setting,value
CN1CCN(c2ccc(Nc3ncc(Cl)c(NC[C@H]4CCCO4)n3)cc2)CC1 [(R)-9b],sensitivity (cell proliferation),BT549,sensitive
same,sensitivity (cell proliferation),MDA-MB-468,sensitive
same,number of cells undergoing apoptosis,[1],marked increase
same,lung metastatic deposits,[2]; (R)-9b oral,2 deposits
same,lung metastatic deposits,[2]; (R)-9b subcutaneous,no deposits
same,lung tumor nodules (H&E),[3],absent
same,lung luminescence (photons/sec),[3]; five times a week,significant decrease
same,"γH2AX staining (DNA damage, double strand breaks)",phospho-serine 139-γH2AX,poor γH2AX staining
same,IC50,[4],400 nM
